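Results reflect a 48-hour exposure of cells in 96-well plates to compound at five concentrations. The concentration for 50% growth inhibition is given as GI50.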 Active and inactive are the calls of the source. Cut-off read from the data, not from the text of the source: active = GI50 up to about 1.1 µM and inactive = higher.
Assays:
Assay in all cases: NCI tumour cell line growth inhibition, 48 h
[1] = test system: A498
[2] = test system: BT-549
[3] = test system: HCC 2998
[4] = test system: HCT-15
[5] = test system: HOP-62
[6] = test system: HOP-92
[7] = test system: HT-29
[8] = test system: KM12
[9] = test system: MDA-MB-231
[10] = test system: MDA-N
[11] = test system: Malme-3M
[12] = test system: NCI-H23
[13] = test system: NCI-H460
[14] = test system: OVCAR-5
[15] = test system: SK-MEL-2
[16] = test system: SN12C
[17] = test system: SR
[18] = test system: U-251
[19] = test system: LOX IMVI
[20] = test system: TK-10

N#C[BH2-][n+]1cn(C2CC(O)C(COP(=O)(O)OC3CC(n4cnc5c(N)ncnc54)OC3CO)O2)c2nc(N)[nH]c(=O)c21 (centres undefined)
GI50 [1]: > 100 µM (inactive) | GI50 [2]: > 100 µM (inactive) | GI50 [3]: > 100 µM (inactive) | GI50 [4]: > 100 µM | GI50 [5]: > 100 µM (inactive) | GI50 [6]: > 100 µM (inactive) | GI50 [7]: > 100 µM (inactive) | GI50 [8]: > 100 µM (inactive) | GI50 [9]: > 100 µM (inactive) | GI50 [10]: > 100 µM (inactive) | GI50 [11]: > 100 µM (inactive) | GI50 [12]: > 100 µM (inactive) | GI50 [13]: > 100 µM (inactive) | GI50 [14]: > 100 µM (inactive) | GI50 [15]: > 100 µM (inactive) | GI50 [16]: > 100 µM (inactive) | GI50 [17]: > 100 µM (inactive) | GI50 [18]: > 100 µM (inactive)

C=C1C(=O)OC2/C=C(/C)C(OC(C)=O)C/C=C(\C)C(OC(=O)C3(C)OC3C)C(O)C12 (centres undefined)
GI50 [1]: > 100 µM (inactive) | GI50 [2]: 65.6 µM (inactive) | GI50 [3]: > 100 µM (inactive) | GI50 [4]: 53.3 µM | GI50 [5]: > 100 µM (inactive) | GI50 [6]: > 100 µM (inactive) | GI50 [7]: > 100 µM (inactive) | GI50 [8]: > 100 µM (inactive) | GI50 [19]: 30.8 µM (inactive) | GI50 [9]: > 100 µM (inactive) | GI50 [10]: > 100 µM (inactive) | GI50 [12]: > 100 µM (inactive) | GI50 [13]: > 100 µM (inactive) | GI50 [14]: > 100 µM (inactive) | GI50 [15]: > 100 µM (inactive) | GI50 [16]: > 100 µM (inactive) | GI50 [17]: 39.4 µM (inactive) | GI50 [20]: > 100 µM (inactive) | GI50 [18]: > 100 µM (inactive)

Cc1cc(S(=O)(=O)/N=C(\NN)NNc2cccc(C(F)(F)F)n2)c(S)cc1Cl
GI50 [1]: 22.1 µM (inactive) | GI50 [2]: 13.3 µM (inactive) | GI50 [3]: 16.5 µM (inactive) | GI50 [4]: 18.8 µM | GI50 [5]: 19.6 µM (inactive) | GI50 [6]: 4.21 µM (inactive) | GI50 [7]: 19.7 µM (inactive) | GI50 [8]: 16.9 µM (inactive) | GI50 [19]: 18.9 µM (inactive) | GI50 [9]: 31.4 µM (inactive) | GI50 [10]: 14.8 µM (inactive) | GI50 [11]: 19.1 µM (inactive) | GI50 [13]: 26.9 µM (inactive) | GI50 [14]: 14.9 µM (inactive) | GI50 [15]: 25.5 µM (inactive) | GI50 [16]: 30.6 µM (inactive) | GI50 [17]: 21.3 µM (inactive) | GI50 [20]: 26.2 µM (inactive) | GI50 [18]: 16.8 µM (inactive)

O=C(O)CCCc1ccc2ccccc2c1
GI50 [1]: > 100 µM (inactive) | GI50 [2]: > 100 µM (inactive) | GI50 [3]: > 100 µM (inactive) | GI50 [4]: > 100 µM | GI50 [5]: > 100 µM (inactive) | GI50 [6]: > 100 µM (inactive) | GI50 [7]: > 100 µM (inactive) | GI50 [8]: > 100 µM (inactive) | GI50 [19]: > 100 µM (inactive) | GI50 [9]: > 100 µM (inactive) | GI50 [10]: > 100 µM (inactive) | GI50 [12]: > 100 µM (inactive) | GI50 [13]: > 100 µM (inactive) | GI50 [14]: > 100 µM (inactive) | GI50 [15]: > 100 µM (inactive) | GI50 [16]: > 100 µM (inactive) | GI50 [17]: 97.9 µM (inactive) | GI50 [20]: > 100 µM (inactive) | GI50 [18]: > 100 µM (inactive)

N[C@@H](CCC(=O)NCP(=O)(O)O)C(=O)O
GI50 [1]: > 100 µM (inactive) | GI50 [2]: > 100 µM (inactive) | GI50 [3]: > 100 µM (inactive) | GI50 [4]: > 100 µM | GI50 [5]: > 100 µM (inactive) | GI50 [7]: > 100 µM (inactive) | GI50 [8]: > 100 µM (inactive) | GI50 [9]: > 100 µM (inactive) | GI50 [10]: > 100 µM (inactive) | GI50 [11]: > 100 µM (inactive) | GI50 [12]: > 100 µM (inactive) | GI50 [13]: > 100 µM (inactive) | GI50 [14]: > 100 µM (inactive) | GI50 [15]: > 100 µM (inactive) | GI50 [16]: > 100 µM (inactive) | GI50 [17]: > 100 µM (inactive) | GI50 [20]: > 100 µM (inactive) | GI50 [18]: > 100 µM (inactive)

O=C(Nc1ccccc1)n1[nH]c(=O)n(-c2ccccc2)c1=O
GI50 [1]: > 100 µM (inactive) | GI50 [2]: > 100 µM (inactive) | GI50 [3]: > 100 µM (inactive) | GI50 [4]: > 100 µM | GI50 [6]: > 100 µM (inactive) | GI50 [7]: > 100 µM (inactive) | GI50 [8]: > 100 µM (inactive) | GI50 [19]: > 100 µM (inactive) | GI50 [9]: > 100 µM (inactive) | GI50 [10]: > 100 µM (inactive) | GI50 [11]: > 100 µM (inactive) | GI50 [12]: > 100 µM (inactive) | GI50 [13]: > 100 µM (inactive) | GI50 [15]: > 100 µM (inactive) | GI50 [16]: > 100 µM (inactive) | GI50 [17]: > 100 µM (inactive) | GI50 [20]: > 100 µM (inactive) | GI50 [18]: > 100 µM (inactive)

Cc1cc(N(CCC#N)CCC#N)ccc1C(/N=N/c1ccccc1)=N\NC(=O)c1cc(Cl)ccc1O
GI50 [1]: 59.2 µM (inactive) | GI50 [2]: 18.2 µM (inactive) | GI50 [3]: 15.8 µM (inactive) | GI50 [4]: 18.4 µM | GI50 [5]: 41.8 µM (inactive) | GI50 [7]: 15.5 µM (inactive) | GI50 [8]: 26.1 µM (inactive) | GI50 [9]: 27.1 µM (inactive) | GI50 [10]: 32.6 µM (inactive) | GI50 [11]: 27.9 µM (inactive) | GI50 [12]: 13.1 µM (inactive) | GI50 [13]: 24.5 µM (inactive) | GI50 [14]: > 10 µM (inactive) | GI50 [15]: 32.4 µM (inactive) | GI50 [16]: 26.5 µM (inactive) | GI50 [17]: 13.5 µM (inactive) | GI50 [20]: 14.9 µM (inactive) | GI50 [18]: 33.1 µM (inactive)

From ChEMBL document CHEMBL1201862, “PubChem BioAssay data set” (2004)
